The nature of data set [1]: Saturation solubility study in ddH2O. It is filed as physicochemical. Particulars: 25°C, 90 minutes; for Saturation & Solubility: 100 rpm, mean ± SD of triplicates, per batch; for saturation solubility (water solubility): independent batches. The method, then:
Determination of Saturation Solubility of Chidamide-HCl, Chidamide-H2SO4, and Celecoxib-Na Salts. Sample of 5 mg of chidamide-HCl, chidamide-H2SO4, or celecoxib-Na salts was added to 5 ml volumetric flasks containing ddH2O and shook at 100 rpm in an incubator at 25°C for 90 minutes. The resulting suspension was filtered through a 0.22 µm filter. The concentrations of chidamide-HCl, chidamide-H2SO4, and celecoxib-Na salts were determined spectrophotometrically at 256 nm, 256 nm, and 253 nm, respectively. The saturation solubility of each sample was determined in triplicates and the mean value and standard deviation were reported. Preparation of standard curves is described as below.

The conditions of data set [2]: low solubility and high permeability; cited from earlier work.

Regarding `Cc1ccc(-c2cc(C(F)(F)F)nn2-c2ccc(S(N)(=O)=O)cc2)cc1` [Celecoxib-API, 4-[5-(4-Methylphenyl)-3-(trifluoromethyl)pyrazol-1-yl]benzenesulfonamide], in data set [1], the “Saturation & Solubility” value was “BDL” and the “saturation solubility (water solubility)” value is given as “water-insoluble”. In data set [2], the “BCS (biopharmaceutical classification system) class” value was “class II”.
Turning to `Nc1cc(F)ccc1NC(=O)c1ccc(CNC(=O)/C=C/c2cccnc2)cc1` [Chidamide-API, 4-(((E)-3-(pyridin-3-yl)acrylamido)methyl)-N-(2-amino-4-fluorophenyl)benzamide], in data set [1], the “Saturation & Solubility” value is listed as “BDL” and the “saturation solubility (water solubility)” value is “water-insoluble”.

These data come from patent publication EP4028002B1, “AN ANTICANCER COMBINATION OF CHIDAMIDE AND CELECOXIB” (Great Novel Therapeutics Biotech & Medicals Corporation, priority 2019, dated 2021).
